In patent US10046050B2, “Targeting immunotherapy for amyloidosis” (UNIVERSITY OF TENNESSEE RESEARCH FOUNDATION, priority 2014, dated 2018):

How the values were obtained:
^125I-7D8 = experiment: Pulldown assay with peptope-coated polystyrene beads; format: binding; settings: peptope conjugated to polystyrene beads; ˜0.065 nM ^125I-7D8
Procedure: The 7D8 antibody (15 μg) was radiolabeled with 0.5 mCi of reductant-free iodine-125 (^125I, Perkin Elmer) using limiting amounts of chloramine T (10 μg) and suspended in PBS containing 0.1% gelatin as carrier protein. Unbound radioisotope and protein aggregates were removed from the preparation by size-exclusion liquid chromatography using an Ultrogel AcA34 solid phase (Amersham Pharmacia). Fractions containing ^125I-7D8 were pooled for pull-down assays. The relative radiopurity of the preparation was assessed by SDS/PAGE (4-12% acrylamide; Novex) followed by imaging using a phosphor-imager (Cyclone).
Pulldown assays were performed using ^125I-7D8 using, as a substrate, peptope-conjugated to polystyrene beads, synthetic fibrils (Aβ[1-40] or IAPP) or human ATTR amyloid extracts (transthyretin-associated amyloid [ATTR] was previously isolated from the organs of three different patients with Appalachian mutation—Thr60Ala). […] The sample was mixed end over end for 1 h at room temperature, and the bound and free ^125I-7D8 were then separated by serial centrifugations at 16,000×g and the percent bound calculated immunoreactivity=[boundcpm/(boundcpm+freecpm)]×100 Pulldown assays using synthetic fibrils and amyloid extracts were performed essentially as described herein. […]

[1] = test system: RAW 264.7 murine macrophages; experiment: Phagocytosis assay of pHrodo green-labeled human ATTR extract; format: cell-based; settings: 80 min
Procedure: The phagocytosis of human cardiac ATTR extract induced by peptope and 7D8 was studied using a pH-sensitive fluorescence enhancement assay. The RAW 264.7 murine macrophages (1×10^6 cells per well) were plated into the wells of a 12-well culture dish, containing a glass coverslip, and incubated at 37° C. overnight. On the day of the experiment, 10 μg of pHrodo green-labeled human ATTR extract was mixed with 4 μg of p75 peptide or, as a negative control, an equal volume of PBS (pHrodo green [Thermofisher, Molecular Probes] is a pH sensitive dye that is only fluorescent at pH 4, i.e. in a acidified macrophage endosome/lysosome). The sample was incubated for 30 min. Unbound p75 peptide was removed by washing twice, by centrifugation at 10,000×g using PBS. The 7D8 and MOPC mAb solutions (MOPC served as a negative isotype control) were centrifuged at 10,000×g to remove particulates before adding 10 μg to the peptide-coated ATTR extract. The samples were incubated for 1 h before being washed by centrifugation as above, before being added to the wells of the microplate. The cells were incubated with the amyloid extract for 80 min, at which time Hoescht dye (Thermofisher) was added to the well (to stain the cell nuclei blue), and the mixture incubated for a further 10 min. The coverslips were then washed and mounted on a slide for epifluorescent microscopy and digital image acquisition using blue (nuclei) and green (phagocytosed amyloid) fluorescent filters. Images (original magnification 160×) were analyzed digitally and the area of green fluorescence per cell (“phagocytosis index”) was calculated using 3 or 4 digital images acquired from each coverslip. Approximately 2000 cells were analyzed for each sample.

## KAQKAQAKQAKQAQKAQKAQAKQAKQAQHEDT [p75, KAQKAQAKQAKQAQKAQKAQAKQAKQAQHEDT]
^125I-7D8
  percent of added ^125I-7D8 bound: 62.3%
[1]
  phagocytosis index (area of green fluorescence per cell), 25% Percentile: 0.5842
  phagocytosis index (area of green fluorescence per cell), 75% Percentile: 2.603
  phagocytosis index (area of green fluorescence per cell), Maximum: 2.603
  phagocytosis index (area of green fluorescence per cell), Mean: 1.367
  phagocytosis index (area of green fluorescence per cell), Median: 0.9137
  phagocytosis index (area of green fluorescence per cell), Minimum: 0.5842
